The record followed here is patent publication US20120045393A1 (priority 2009, published 2012).

Non-standard residues stand in square brackets, D forms with d. Residues, ends and D or L forms follow the SMILES beside them. *: point of attachment. DOTA = O=C(O)CN1CCN(CC(=O)O)CCN(CC(=O)*)CCN(CC(=O)O)CC1; Bpa = N[C@@H](Cc1ccc(C(=O)c2ccccc2)cc1)C(=O)O; d2Nal = N[C@H](Cc1ccc2ccccc2c1)C(=O)O; Nicotinoyl = O=C(c1cccnc1)*; azaGly = NNC(=O)O; Sar = CNCC(=O)O
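Also: Cell-associated radioactivity on confluent EFO-27 monolayers in 96-well plates, measured by microplate scintillation counting.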

For the first assay, the system named is LHRH binding sites on human ovarian cancer cells (EFO-27).
Conditions: not given
Take `CN(CC(=O)N[C@@H](Cc1c[nH]cn1)C(=O)N[C@@H](Cc1c[nH]c2ccccc12)C(=O)N[C@@H](CO)C(=O)N[C@@H](Cc1c[nH]cn1)C(=O)N[C@H](CCCNC(=N)N)C(=O)N[C@@H](Cc1c[nH]c2ccccc12)C(=O)N[C@@H](Cc1cscn1)C(=O)N1CCC[C@H]1C(=O)NNC(N)=O)C(=O)CN1CCN(CC(=O)O)CCN(CC(=O)O)CCN(CC(=O)O)CC1` [BRU-2742]: the response was half-maximal at 10 µM (EC50).
`N=C(N)NCCC[C@H](NC(=O)[C@@H](Cc1ccc2ccccc2c1)NC(=O)CN1CCN(CC(=O)O)CCN(CC(=O)O)CCN(CC(=O)O)CC1)C(=O)N[C@@H](Cc1c[nH]c2ccccc12)C(=O)N[C@@H](Cc1c[nH]c2ccccc12)C(=O)N[C@@H](Cc1c[nH]cn1)C(=O)N[C@H](CCCNC(=N)N)C(=O)N[C@@H](Cc1c[nH]c2ccccc12)C(=O)N[C@@H](Cc1ccc(C(=O)c2ccccc2)cc1)C(=O)N1CCC[C@H]1C(=O)NNC(N)=O` [compound 3114] ({DOTA}-[d2Nal]RWWH[dR]W[Bpa]P[azaGly]-NH2) gave an EC50 of 11.5 µM.
For `CNCC(=O)N[C@@H](CCCNC(=N)N)C(=O)N[C@@H](Cc1c[nH]c2ccccc12)C(=O)N[C@@H](CO)C(=O)N[C@@H](Cc1c[nH]cn1)C(=O)N[C@H](CCCNC(=N)N)C(=O)N[C@@H](Cc1c[nH]c2ccccc12)C(=O)N[C@@H](Cc1ccc(C(=O)c2ccccc2)cc1)C(=O)N1CCC[C@H]1C(=O)NCCNC(=O)CN1CCN(CC(=O)O)CCN(CC(=O)O)CCN(CC(=O)O)CC1` [BRU-3103], the EC50 is at most 0.2 µM.
Still for that read-out and setting: the figure for `CN(CC(=O)N[C@@H](Cc1c[nH]cn1)C(=O)N[C@@H](Cc1c[nH]c2ccccc12)C(=O)N[C@@H](CO)C(=O)N[C@@H](Cc1c[nH]cn1)C(=O)N[C@H](CCCNC(=N)N)C(=O)N[C@@H](Cc1c[nH]c2ccccc12)C(=O)N[C@@H](Cc1ccc(-c2ccccc2)cc1)C(=O)N1CCC[C@H]1C(=O)NNC(N)=O)C(=O)CN1CCN(CC(=O)O)CCN(CC(=O)O)CCN(CC(=O)O)CC1` [BRU-2625] is 2.14 µM; for `N=C(N)NCCC[C@H](NC(=O)[C@@H](Cc1ccc2ccccc2c1)NC(=O)CN1CCN(CC(=O)O)CCN(CC(=O)O)CCN(CC(=O)O)CC1)C(=O)N[C@@H](Cc1c[nH]c2ccccc12)C(=O)N[C@@H](CO)C(=O)N[C@@H](Cc1c[nH]cn1)C(=O)N[C@H](CCCNC(=N)N)C(=O)N[C@@H](Cc1c[nH]c2ccccc12)C(=O)N[C@@H](Cc1ccc(C(=O)c2ccccc2)cc1)C(=O)N1CCC[C@H]1C(=O)NNC(=O)NCCCCN` [compound 3019] it is 0.9 µM; for `N=C(N)NCCC[C@H](NC(=O)[C@@H](Cc1ccc2ccccc2c1)NC(=O)CN1CCN(CC(=O)O)CCN(CC(=O)O)CCN(CC(=O)O)CC1)C(=O)N[C@@H](Cc1c[nH]c2ccccc12)C(=O)N[C@@H](CO)C(=O)N[C@@H](Cc1c[nH]cn1)C(=O)N[C@H](CCCNC(=N)N)C(=O)N[C@@H](Cc1c[nH]c2ccccc12)C(=O)N[C@@H](Cc1ccc(C(=O)c2ccccc2)cc1)C(=O)N1C[C@H](O)C[C@H]1C(=O)NNC(N)=O` [compound 2952] it is 0.28 µM.
Consider `CN(CC(=O)N[C@@H](Cc1c[nH]cn1)C(=O)N[C@@H](Cc1c[nH]c2ccccc12)C(=O)N[C@@H](CO)C(=O)N[C@@H](Cc1c[nH]cn1)C(=O)N[C@H](CCCNC(=N)N)C(=O)N[C@@H](Cc1c[nH]c2ccccc12)C(=O)N[C@@H](Cc1ccc(C(=NO)c2ccccc2)cc1)C(=O)N1CCC[C@H]1C(=O)NNC(N)=O)C(=O)CN1CCN(CC(=O)O)CCN(CC(=O)O)CCN(CC(=O)O)CC1` [BRU-2907], for which the concentration for a half-maximal effect (EC50) was 1.9 µM.
On the same count and under the same terms, the figure for `N=C(N)NCCC[C@H](NC(=O)[C@@H](Cc1ccc2ccccc2c1)NC(=O)[C@@H](N)CCCCNC(=O)CN1CCN(CC(=O)O)CCN(CC(=O)O)CCN(CC(=O)O)CC1)C(=O)N[C@@H](Cc1c[nH]c2ccccc12)C(=O)N[C@@H](CO)C(=O)N[C@@H](Cc1c[nH]cn1)C(=O)N[C@H](CCCNC(=N)N)C(=O)N[C@@H](Cc1c[nH]c2ccccc12)C(=O)N[C@@H](Cc1ccc(C(=O)c2ccccc2)cc1)C(=O)N1CCC[C@H]1C(=O)NNC(N)=O` [BRU 3098] is 0.41 µM; for `CNCC(=O)N[C@@H](CCCNC(=N)N)C(=O)N[C@@H](Cc1c[nH]c2ccccc12)C(=O)N[C@@H](CO)C(=O)N[C@@H](Cc1c[nH]cn1)C(=O)N[C@H](CCCNC(=N)N)C(=O)N[C@@H](Cc1c[nH]c2ccccc12)C(=O)N[C@@H](Cc1ccc(C(=O)c2ccccc2)cc1)C(=O)N1CCC[C@H]1C(=O)NCc1cccc(CNC(=O)CN2CCN(CC(=O)O)CCN(CC(=O)O)CCN(CC(=O)O)CC2)n1` [compound 3080] it is 0.23 ± 0.1 µM.
Same read-out and setting: the result for `CC(C)C[C@H](NC(=O)[C@H](CO)NC(=O)[C@H](Cc1c[nH]c2ccccc12)NC(=O)[C@H](CCCNC(=N)N)NC(=O)[C@@H](Cc1ccc2ccccc2c1)NC(=O)CN1CCN(CC(=O)O)CCN(CC(=O)O)CCN(CC(=O)O)CC1)C(=O)N[C@H](CCCNC(=N)N)C(=O)N[C@@H](Cc1c[nH]c2ccccc12)C(=O)N[C@@H](Cc1ccc(C(=O)c2ccccc2)cc1)C(=O)N1CCC[C@H]1C(=O)NNC(N)=O` [BRU-3029] ({DOTA}-[d2Nal]RWSL[dR]W[Bpa]P[azaGly]-NH2; C-terminus assumed) reads 1.21 µM.
Same read-out and setting: the result for `CN(CC(=O)N[C@@H](Cc1c[nH]cn1)C(=O)N[C@@H](Cc1c[nH]c2ccccc12)C(=O)N[C@@H](CO)C(=O)N[C@@H](Cc1c[nH]cn1)C(=O)N[C@H](CCCNC(=N)N)C(=O)N[C@@H](Cc1c[nH]c2ccccc12)C(=O)N[C@@H](Cc1c[nH]c2ccccc12)C(=O)N1CCC[C@H]1C(=O)NNC(N)=O)C(=O)CN1CCN(CC(=O)O)CCN(CC(=O)O)CCN(CC(=O)O)CC1` [BRU-2724] (HELM PEPTIDE1{[O=C(O)CN1CCN(CC(=O)O)CCN(CC(=O)[*:2])CCN(CC(=O)O)CC1].[Sar].H.W.S.H.[dR].W.W.P.[O=C(NN[*:1])[*:2]].[am]}$$$$V2.0) reads 2.67 µM; that for `CN(CC(=O)N[C@@H](Cc1c[nH]cn1)C(=O)N[C@@H](Cc1c[nH]c2ccccc12)C(=O)N[C@@H](CO)C(=O)N[C@@H](Cc1c[nH]cn1)C(=O)N[C@H](CCCNC(=N)N)C(=O)N[C@@H](Cc1c[nH]c2ccccc12)C(=O)N[C@H](C(=O)N1CCC[C@H]1C(=O)NNC(N)=O)C1Cc2ccccc2C1)C(=O)CN1CCN(CC(=O)O)CCN(CC(=O)O)CCN(CC(=O)O)CC1` [BRU-2765], 8.71 µM; that for `N=C(N)NCCC[C@H](NC(=O)[C@@H](Cc1ccc2ccccc2c1)NC(=O)CN1CCN(CC(=O)O)CCN(CC(=O)O)CCN(CC(=O)O)CC1)C(=O)N[C@@H](Cc1c[nH]c2ccccc12)C(=O)N[C@@H](CO)C(=O)N[C@@H](CCCNC(N)=O)C(=O)N[C@H](CCCNC(=N)N)C(=O)N[C@@H](Cc1c[nH]c2ccccc12)C(=O)N[C@@H](Cc1ccc(C(=O)c2ccccc2)cc1)C(=O)N1CCC[C@H]1C(=O)NNC(N)=O` [BRU-3030], 0.93 µM.

Staying with this assay, now noted: EFO-27 cells, competition with [125I-Tyr8]BRU-2477, 90 min.
Turning to `CN(CC(=O)N[C@@H](Cc1c[nH]cn1)C(=O)N[C@@H](Cc1c[nH]c2ccccc12)C(=O)N[C@@H](CO)C(=O)N[C@@H](Cc1c[nH]cn1)C(=O)N[C@H](CCCCNC(=O)c1cccnc1)C(=O)N[C@@H](Cc1c[nH]c2ccccc12)C(=O)N[C@@H](Cc1ccc(C(=O)c2ccccc2)cc1)C(=O)N1CCC[C@H]1C(=O)NNC(N)=O)C(=O)CN1CCN(CC(=O)O)CCN(CC(=O)O)CCN(CC(=O)O)CC1` [compound 2671] ({DOTA}-[Sar]HWSH[dK](Nicotinoyl)W[Bpa]P[azaGly]-NH2), the midpoint of the response, the EC50, lay at 7.2 µM.
Still for that read-out and setting: the result for `CN(CC(=O)N[C@@H](Cc1c[nH]cn1)C(=O)N[C@@H](Cc1c[nH]c2ccccc12)C(=O)N[C@@H](CO)C(=O)N[C@@H](Cc1c[nH]cn1)C(=O)N[C@H](Cc1c[nH]c2ccccc12)C(=O)N[C@@H](Cc1c[nH]c2ccccc12)C(=O)N[C@@H](Cc1ccc(C(=O)c2ccccc2)cc1)C(=O)N1CCC[C@H]1C(=O)NNC(N)=O)C(=O)CN1CCN(CC(=O)O)CCN(CC(=O)O)CCN(CC(=O)O)CC1` [compound 2731] ({DOTA}-[Sar]HWSH[dW]W[Bpa]P[azaGly]-NH2) reads 1.36 µM.

The same assay, now with this note: Table 5: modifications of amino acids at positions 1 and 2; in vitro binding on EFO-27 cells.
Take `N=C(N)NCCC[C@H](NC(=O)[C@@H]1Cc2ccccc2CN1C(=O)CNC(=O)CN1CCN(CC(=O)O)CCN(CC(=O)O)CCN(CC(=O)O)CC1)C(=O)N[C@@H](Cc1c[nH]c2ccccc12)C(=O)N[C@@H](CO)C(=O)N[C@@H](Cc1c[nH]cn1)C(=O)N[C@H](CCCNC(=N)N)C(=O)N[C@@H](Cc1c[nH]c2ccccc12)C(=O)N[C@@H](Cc1ccc(C(=O)c2ccccc2)cc1)C(=O)N1CCC[C@H]1C(=O)NNC(N)=O` [BRU-3052]: the EC50 came to 0.55 µM.

Staying with this assay, now noted: Table 15: C-terminus chelator-functionalized peptides; EFO-27 cells, vs [125I-Tyr8]BRU-2477.
In turn, `CNCC(=O)N[C@@H](CCCNC(=N)N)C(=O)N[C@@H](Cc1c[nH]c2ccccc12)C(=O)N[C@@H](CO)C(=O)N[C@@H](Cc1c[nH]cn1)C(=O)N[C@H](CCCNC(=N)N)C(=O)N[C@@H](Cc1c[nH]c2ccccc12)C(=O)N[C@@H](Cc1ccc(C(=O)c2ccccc2)cc1)C(=O)N1CCC[C@H]1CNC(=O)CN1CCN(CC(=O)O)CCN(CC(=O)O)CCN(CC(=O)O)CC1` [compound 3117] (HELM PEPTIDE1{[Sar].R.W.S.H.[dR].W.[O=C(c1ccccc1)c1ccc(C[C@H](N[*:1])C(=O)[*:2])cc1].[O=C(O)CN1CCN(CC(=O)O)CCN(CC(=O)NC[C@@H]2CCCN2[*:1])CCN(CC(=O)O)CC1]}$$$$V2.0; N-terminus assumed) showed an EC50 of 0.34 µM.

Staying with this assay, now noted: Table 19: analogs used in the stabilization studies.
In the case of “BRU-2994: DO3A10CM-Dnal2-R-W-S-H-r-W-Bpa4-Flp4-azaG”, a half-maximal effect (EC50) was put at 0.6 µM.

Still in this assay, the particulars now being: read-out: EC50 μM; Underivatized LHRH peptides and LHRH peptides with chelator on N-terminus; EFO-27 cells.
`N=C(N)NCCC[C@H](NC(=O)[C@@H](Cc1ccc2ccccc2c1)NC(=O)CC[C@H](CCCCN)NC(=O)CN1CCN(CC(=O)O)CCN(CC(=O)O)CCN(CC(=O)O)CC1)C(=O)N[C@@H](Cc1c[nH]c2ccccc12)C(=O)N[C@@H](CO)C(=O)N[C@@H](Cc1c[nH]cn1)C(=O)N[C@H](CCCNC(=N)N)C(=O)N[C@@H](Cc1c[nH]c2ccccc12)C(=O)N[C@@H](Cc1ccc(C(=O)c2ccccc2)cc1)C(=O)N1CCC[C@H]1C(=O)NCCOCCOCCN` [BRU-3100]: the EC50 was 0.14 µM.
On the same count and under the same terms, the figure for “BRU-2994: DO3A10CM-Dnal2-R-W-S-H-r-W-Bpa4-Flp4-azaG” is 0.6 µM.

In general, EC50 refers to the midpoint of the concentration-response curve.
